The supplement of paper PMC8967900

Columns and labels:
Assay in all cases: selective drug sensitivity score (sDSS, relative to normal bone marrow) (sDSS (score)); higher = more potent and effective on the cell line relative to normal bone marrow cells
Details in all cases: 72 h
RPMI-8402 = tested on: RPMI-8402
RCH-ACV = tested on: RCH-ACV
CCRF-CEM = tested on: CCRF-CEM
P30-OHKUBO = tested on: P30-OHKUBO
NALM-16 = tested on: NALM-16
PF-382 = tested on: PF-382
MOLT-16 = tested on: MOLT-16
380 = tested on: 380
COG-LL-319h = tested on: COG-LL-319h
COG-LL-402h = tested on: COG-LL-402h
KASUMI-10 = tested on: KASUMI-10
KASUMI-9 = tested on: KASUMI-9
REH = tested on: REH
SUP-B15 = tested on: SUP-B15
MHH-CALL-2 = tested on: MHH-CALL-2
CCRF-HSB2 = tested on: CCRF-HSB2
MN-60 = tested on: MN-60
COG-LL-394h = tested on: COG-LL-394h
MHH-CALL-3 = tested on: MHH-CALL-3
HAL-01 = tested on: HAL-01
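Note: ALL cell lines in 384-well plates, five doses spanning 10,000-fold, each plate scaled between vehicle and 100 µmol/L benzalkonium chloride controls, sDSS an adapted area-under-curve metric.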

Row | Compound | selective drug sensitivity score (RPMI-8402) | selective drug sensitivity score (RCH-ACV) | selective drug sensitivity score (CCRF-CEM) | selective drug sensitivity score (P30-OHKUBO) | selective drug sensitivity score (NALM-16) | selective drug sensitivity score (PF-382) | selective drug sensitivity score (MOLT-16) | selective drug sensitivity score 380 | selective drug sensitivity score (COG-LL-319h) | selective drug sensitivity score (COG-LL-402h) | selective drug sensitivity score (KASUMI-10) | selective drug sensitivity score (KASUMI-9) | selective drug sensitivity score (REH) | selective drug sensitivity score (SUP-B15) | selective drug sensitivity score (MHH-CALL-2) | selective drug sensitivity score (CCRF-HSB2) | selective drug sensitivity score (MN-60) | selective drug sensitivity score (COG-LL-394h) | selective drug sensitivity score (MHH-CALL-3) | selective drug sensitivity score (HAL-01)
1 | O=C(O)c1ccc(O)c2ncccc12 [IOX-1] (top concentration 100000 nM) | 2.64 | 3.74 | 3.74 | 3.04 | 4.64 | 4.44 | 3.74 | 8.64 | 2.94 | 3.64 | 1.54 | 2.94 | 2.54 | 4.24 | 3.64 | 5.34 | 4.54 | -1.56 | 0.24 | 3.34
2 | CC(=O)[C@]1(O)Cc2c(O)c3c(c(O)c2[C@@H](O[C@H]2C[C@H](N)[C@H](O)[C@H](C)O2)C1)C(=O)c1ccccc1C3=O [Idarubicin] (top concentration 1000 nM) | 10.5 | 12.7 | 8.84 | 3.94 | -2.56 | 1.24 | 15.9 | 13.7 | 16.7 | 14.9 | 8.14 | 4.94 | 11.8 | 9.74 | 8.04 | 12.3 | -2.26 | 7.94 | 14.6 | 7.24
3 | COc1cc2nccc(Oc3ccc(NC(=O)NC4CC4)c(Cl)c3)c2cc1C(N)=O [Lenvatinib] (top concentration 2500 nM) | -0.24 | 5.36 | 0.16 | -0.14 | -0.24 | -0.24 | -0.04 | 0.06 | 6.16 | 1.56 | 1.86 | 1.36 | -0.24 | 6.46 | 1.46 | 5.06 | -0.24 | 0.26 | -0.24 | 0.76
4 | N#Cc1ccc(C(c2ccc(C#N)cc2)n2cncn2)cc1 [Letrozole] (top concentration 10000 nM) | -0.04 | -0.04 | -0.04 | -0.04 | -0.04 | -0.04 | -0.04 | -0.04 | -0.04 | -0.04 | -0.04 | -0.04 | 4.76 | 0.36 | -0.04 | -0.04 | -0.04 | -0.04 | -0.04 | -0.04
5 | CCNCCS(=O)(=O)NC[C@@]1(c2ccccc2)SC(NC(=O)C(C)(C)C)=NN1C(=O)C(C)(C)C [Litronesib] (top concentration 1000 nM) | 18.7 | 22.1 | 19.8 | 19.6 | 14.3 | 13.7 | 20.2 | 19 | 22.4 | 18 | 14.7 | 18.4 | 22.3 | 21.7 | 15.6 | 21.3 | 4.64 | 7.74 | 7.44 | 1.94
6 | CC[C@H](C)C(=O)O[C@H]1C[C@@H](C)C=C2C=C[C@H](C)[C@H](CC[C@@H]3C[C@@H](O)CC(=O)O3)[C@H]21 [Lovastatin] (top concentration 10000 nM) | 1.8 | 0.2 | 0 | 2.5 | -0.1 | 0 | 1.7 | 7.8 | -0.1 | -0.1 | -0.1 | 2.7 | 1 | -0.1 | 8.7 | -0.1 | -0.1 | -0.1 | 8.4 | 2.5
7 | Cn1cc(-c2cnn3c(N)c(Br)c([C@@H]4CCCNC4)nc23)cn1 [MK-8776] (top concentration 2500 nM) | 1.44 | 3.94 | 1.04 | -1.16 | 1.14 | 0.14 | 1.44 | 3.64 | 1.04 | 2.64 | 2.24 | 1.54 | 0.24 | -0.06 | 2.54 | 0.64 | -1.46 | -0.96 | 0.04 | -0.46
8 | Cc1cnc(-c2ccccc2C(C)C)nc1NCc1ccc(-n2ccnn2)cc1 [ML323] (top concentration 10000 nM) | 3.44 | 3.34 | 0.44 | 0.54 | 0.64 | 3.04 | 3.04 | -0.36 | 1.14 | -0.36 | -0.36 | 0.04 | 3.44 | 2.94 | 0.24 | 1.84 | 0.04 | 3.64 | -0.36 | 0.04
9 | O=C(CCNC(=O)c1ccc(OC(F)(F)F)cc1)N[C@@H]1CCCc2ccccc21 [ML390] (top concentration 50000 nM) | 12.6 | 21 | 9.3 | 13.6 | 6.6 | 9.8 | 20.8 | 12.4 | 16.9 | 3.2 | 4.1 | 13.1 | 16.1 | 19.1 | 4.1 | 12.2 | 16.8 | -1.2 | -1.2 | 4.9
